# Experimental data taken from ChEMBL document CHEMBL5715949, “Discovery of a selective irreversible BMX inhibitor for prostate cancer” (ACS Chem Biol, 2013).
# The source made the active and inactive calls. The calls are words filed in the database; no cut-off is given here.
# Legend:
# [1] = system: Tyrosine-protein kinase ABL1 (Homo sapiens), P00519 [H396P]; test: Inhibition of ABL1 H396P mutant (unknown origin) assessed as remaining activity at 1 uM by Kinome scan method relative to control
# [2] = target: Activin receptor type-2A (Homo sapiens) (UniProt P27037); test: Inhibition of ACVR2A (unknown origin) assessed as remaining activity at 1 uM by Kinome scan method relative to control
# [3] = target: Peripheral plasma membrane protein CASK (Homo sapiens) (UniProt O14936); test: Inhibition of CASK (unknown origin) assessed as remaining activity at 1 uM by Kinome scan method relative to control
# [4] = target: Cyclin-dependent kinase 5 (Homo sapiens) (UniProt Q00535); test: Inhibition of CDK5 (unknown origin) assessed as remaining activity at 1 uM by Kinome scan method relative to control
# [5] = target: Citron Rho-interacting kinase (Homo sapiens) (UniProt O14578); test: Inhibition of CIT (unknown origin) assessed as remaining activity at 1 uM by Kinome scan method relative to control
# [6] = target: Ephrin type-B receptor 3 (Homo sapiens) (UniProt P54753); test: Inhibition of EPHB3 (unknown origin) assessed as remaining activity at 1 uM by Kinome scan method relative to control
# [7] = target: Tyrosine-protein kinase Fes/Fps (Homo sapiens) (UniProt P07332); test: Inhibition of FES (unknown origin) assessed as remaining activity at 1 uM by Kinome scan method relative to control
# [8] = target: Tyrosine-protein kinase Fgr (Homo sapiens) (UniProt P09769); test: Inhibition of FGR (unknown origin) assessed as remaining activity at 1 uM by Kinome scan method relative to control
# [9] = system: Hepatocyte growth factor receptor (Homo sapiens), P08581 [M1250T]; test: Inhibition of MET M1250T mutant (unknown origin) assessed as remaining activity at 1 uM by Kinome scan method relative to control
# [10] = target: cAMP-dependent protein kinase catalytic subunit beta (Homo sapiens) (UniProt P22694); test: Inhibition of PKAC-beta (unknown origin) assessed as remaining activity at 1 uM by Kinome scan method relative to control
# [11] = target: Tyrosine-protein kinase Yes (Homo sapiens) (UniProt P07947); test: Inhibition of YES (unknown origin) assessed as remaining activity at 1 uM by Kinome scan method relative to control
# [12] = Induction of cell cycle arrest in human RV-1 cells assessed as accumulation of cells at G1 phase at 2.5 uM incubated for 5 days by propidium iodide staining based flow cytometric analysis (reference value: 59.7 %); type: functional; details: time 5 day
# [13] = Inhibition of PI3K/AKT/mTOR signalling pathway in human RV-1 cells assessed as decrease in AKT phosphorylation at T308 residue at 2.5 uM incubated for 4 hrs by immunoblot analysis; type: cell-based
# [14] = Inhibition of PI3K/AKT/mTOR signalling pathway in human RV-1 cells assessed as decrease in 4EBP phosphorylation at T37/46 residue at 2.5 uM incubated for 5 days in presence of MK2206 by immunoblot analysis; type: cell-based; details: time 5.0 day
# Sequence of Citron Rho-interacting kinase (Homo sapiens) (O14578 whole entry): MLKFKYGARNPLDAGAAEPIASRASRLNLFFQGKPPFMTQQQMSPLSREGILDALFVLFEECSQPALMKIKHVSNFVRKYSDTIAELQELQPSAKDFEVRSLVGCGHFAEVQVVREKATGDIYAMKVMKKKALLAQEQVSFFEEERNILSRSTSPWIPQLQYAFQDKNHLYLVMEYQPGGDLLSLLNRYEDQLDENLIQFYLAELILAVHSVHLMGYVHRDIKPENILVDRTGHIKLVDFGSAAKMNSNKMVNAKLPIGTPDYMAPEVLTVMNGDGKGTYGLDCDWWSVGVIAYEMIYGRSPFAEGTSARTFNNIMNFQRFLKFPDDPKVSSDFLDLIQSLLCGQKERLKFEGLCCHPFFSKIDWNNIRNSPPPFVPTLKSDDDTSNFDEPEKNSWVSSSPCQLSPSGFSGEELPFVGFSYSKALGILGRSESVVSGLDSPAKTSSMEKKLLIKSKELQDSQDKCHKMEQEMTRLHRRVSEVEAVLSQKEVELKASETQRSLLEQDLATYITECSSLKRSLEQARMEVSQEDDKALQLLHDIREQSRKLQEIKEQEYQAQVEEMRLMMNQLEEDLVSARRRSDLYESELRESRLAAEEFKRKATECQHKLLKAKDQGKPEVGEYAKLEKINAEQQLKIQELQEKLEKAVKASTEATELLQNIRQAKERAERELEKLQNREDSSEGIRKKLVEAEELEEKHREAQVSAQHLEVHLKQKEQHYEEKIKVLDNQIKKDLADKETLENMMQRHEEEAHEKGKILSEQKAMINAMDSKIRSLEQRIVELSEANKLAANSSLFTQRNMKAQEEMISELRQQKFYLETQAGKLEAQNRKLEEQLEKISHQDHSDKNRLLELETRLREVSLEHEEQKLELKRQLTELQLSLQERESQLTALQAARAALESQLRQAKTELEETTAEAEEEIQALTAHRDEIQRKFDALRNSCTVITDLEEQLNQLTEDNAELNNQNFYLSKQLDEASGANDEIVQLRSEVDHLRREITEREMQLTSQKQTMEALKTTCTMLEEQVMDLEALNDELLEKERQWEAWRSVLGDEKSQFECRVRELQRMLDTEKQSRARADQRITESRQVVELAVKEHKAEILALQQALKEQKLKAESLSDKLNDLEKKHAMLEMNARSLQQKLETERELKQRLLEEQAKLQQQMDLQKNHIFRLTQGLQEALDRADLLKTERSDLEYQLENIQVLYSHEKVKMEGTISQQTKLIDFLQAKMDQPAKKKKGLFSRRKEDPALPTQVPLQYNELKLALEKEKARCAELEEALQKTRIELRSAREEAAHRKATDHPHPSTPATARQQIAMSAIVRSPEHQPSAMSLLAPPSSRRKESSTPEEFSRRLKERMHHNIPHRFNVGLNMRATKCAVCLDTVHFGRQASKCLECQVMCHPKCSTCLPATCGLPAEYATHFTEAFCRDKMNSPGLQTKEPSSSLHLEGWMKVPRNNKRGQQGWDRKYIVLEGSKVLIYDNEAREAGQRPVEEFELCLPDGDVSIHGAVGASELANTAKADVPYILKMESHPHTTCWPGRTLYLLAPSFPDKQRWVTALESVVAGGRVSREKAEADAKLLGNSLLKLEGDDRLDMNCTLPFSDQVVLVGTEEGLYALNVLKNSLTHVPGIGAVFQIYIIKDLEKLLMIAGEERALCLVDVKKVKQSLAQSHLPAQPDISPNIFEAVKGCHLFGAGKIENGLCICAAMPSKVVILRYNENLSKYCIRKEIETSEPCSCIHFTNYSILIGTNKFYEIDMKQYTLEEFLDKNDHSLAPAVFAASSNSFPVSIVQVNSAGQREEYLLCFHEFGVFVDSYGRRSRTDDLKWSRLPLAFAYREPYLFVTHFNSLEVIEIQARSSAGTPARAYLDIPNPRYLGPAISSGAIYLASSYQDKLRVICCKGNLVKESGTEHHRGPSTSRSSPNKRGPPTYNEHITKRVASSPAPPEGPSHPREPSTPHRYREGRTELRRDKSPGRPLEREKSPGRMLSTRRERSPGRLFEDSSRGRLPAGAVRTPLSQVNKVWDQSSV
# Sequence of Tyrosine-protein kinase Fes/Fps (Homo sapiens) (P07332 whole entry): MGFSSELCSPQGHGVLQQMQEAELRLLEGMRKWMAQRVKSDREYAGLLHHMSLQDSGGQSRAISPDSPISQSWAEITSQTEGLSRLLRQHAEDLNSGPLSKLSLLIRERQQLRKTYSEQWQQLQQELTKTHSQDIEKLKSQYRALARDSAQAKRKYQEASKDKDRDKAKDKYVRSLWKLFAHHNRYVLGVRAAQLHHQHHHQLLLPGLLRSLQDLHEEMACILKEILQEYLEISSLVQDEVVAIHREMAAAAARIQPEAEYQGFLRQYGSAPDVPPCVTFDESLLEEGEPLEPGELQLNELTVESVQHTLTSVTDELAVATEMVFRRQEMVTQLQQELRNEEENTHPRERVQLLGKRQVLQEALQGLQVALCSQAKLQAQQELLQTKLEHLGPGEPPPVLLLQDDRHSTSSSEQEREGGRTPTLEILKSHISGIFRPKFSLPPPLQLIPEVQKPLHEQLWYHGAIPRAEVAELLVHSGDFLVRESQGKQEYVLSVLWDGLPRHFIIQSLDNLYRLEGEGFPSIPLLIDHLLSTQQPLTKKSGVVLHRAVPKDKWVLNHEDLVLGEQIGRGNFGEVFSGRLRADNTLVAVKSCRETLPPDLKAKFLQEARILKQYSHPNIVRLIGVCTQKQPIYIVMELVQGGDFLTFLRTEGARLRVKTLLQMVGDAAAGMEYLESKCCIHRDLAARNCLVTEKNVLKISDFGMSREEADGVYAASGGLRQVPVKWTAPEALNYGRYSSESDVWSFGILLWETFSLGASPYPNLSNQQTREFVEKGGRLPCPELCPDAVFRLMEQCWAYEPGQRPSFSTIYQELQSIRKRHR
# Sequence of Activin receptor type-2A (Homo sapiens) (P27037 whole entry): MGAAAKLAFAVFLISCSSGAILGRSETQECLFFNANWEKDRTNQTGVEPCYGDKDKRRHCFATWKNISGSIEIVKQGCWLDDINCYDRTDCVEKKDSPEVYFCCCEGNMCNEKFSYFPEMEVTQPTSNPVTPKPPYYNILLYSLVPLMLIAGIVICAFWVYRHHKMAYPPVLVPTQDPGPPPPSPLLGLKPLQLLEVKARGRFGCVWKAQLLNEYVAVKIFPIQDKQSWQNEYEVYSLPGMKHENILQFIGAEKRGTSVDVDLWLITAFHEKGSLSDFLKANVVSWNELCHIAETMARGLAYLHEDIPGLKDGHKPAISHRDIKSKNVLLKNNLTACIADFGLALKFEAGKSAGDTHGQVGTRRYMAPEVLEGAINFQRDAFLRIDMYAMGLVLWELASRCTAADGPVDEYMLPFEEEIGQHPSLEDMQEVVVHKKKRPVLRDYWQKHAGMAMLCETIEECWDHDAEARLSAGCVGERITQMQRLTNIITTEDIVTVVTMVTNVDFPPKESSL
# Sequence of Ephrin type-B receptor 3 (Homo sapiens) (P54753 whole entry): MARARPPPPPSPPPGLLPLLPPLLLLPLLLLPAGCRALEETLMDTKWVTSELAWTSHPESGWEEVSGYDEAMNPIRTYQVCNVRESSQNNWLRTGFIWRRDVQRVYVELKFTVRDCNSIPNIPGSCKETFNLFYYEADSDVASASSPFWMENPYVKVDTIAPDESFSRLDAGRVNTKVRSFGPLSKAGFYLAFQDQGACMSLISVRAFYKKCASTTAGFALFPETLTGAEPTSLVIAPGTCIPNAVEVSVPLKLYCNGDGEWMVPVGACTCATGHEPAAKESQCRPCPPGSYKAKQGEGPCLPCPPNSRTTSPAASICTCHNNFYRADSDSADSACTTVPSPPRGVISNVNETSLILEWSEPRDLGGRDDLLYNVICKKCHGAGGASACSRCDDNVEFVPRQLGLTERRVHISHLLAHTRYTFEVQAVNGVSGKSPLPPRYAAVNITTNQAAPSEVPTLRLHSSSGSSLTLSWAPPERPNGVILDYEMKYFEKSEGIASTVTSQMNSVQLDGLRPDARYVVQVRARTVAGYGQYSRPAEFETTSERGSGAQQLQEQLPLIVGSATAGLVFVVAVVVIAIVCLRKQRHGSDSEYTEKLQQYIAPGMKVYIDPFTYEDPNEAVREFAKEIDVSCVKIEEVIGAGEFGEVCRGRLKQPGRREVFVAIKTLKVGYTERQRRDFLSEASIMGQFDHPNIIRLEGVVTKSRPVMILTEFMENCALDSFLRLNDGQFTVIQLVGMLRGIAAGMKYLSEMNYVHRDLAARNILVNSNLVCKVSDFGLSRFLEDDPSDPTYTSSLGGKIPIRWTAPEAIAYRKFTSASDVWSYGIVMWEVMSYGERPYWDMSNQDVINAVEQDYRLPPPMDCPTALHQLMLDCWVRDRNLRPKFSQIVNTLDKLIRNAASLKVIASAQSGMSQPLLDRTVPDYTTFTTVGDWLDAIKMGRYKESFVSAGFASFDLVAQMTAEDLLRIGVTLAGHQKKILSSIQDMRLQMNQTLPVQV
# Sequence of Tyrosine-protein kinase Yes (Homo sapiens) (P07947 2-543 limits assumed): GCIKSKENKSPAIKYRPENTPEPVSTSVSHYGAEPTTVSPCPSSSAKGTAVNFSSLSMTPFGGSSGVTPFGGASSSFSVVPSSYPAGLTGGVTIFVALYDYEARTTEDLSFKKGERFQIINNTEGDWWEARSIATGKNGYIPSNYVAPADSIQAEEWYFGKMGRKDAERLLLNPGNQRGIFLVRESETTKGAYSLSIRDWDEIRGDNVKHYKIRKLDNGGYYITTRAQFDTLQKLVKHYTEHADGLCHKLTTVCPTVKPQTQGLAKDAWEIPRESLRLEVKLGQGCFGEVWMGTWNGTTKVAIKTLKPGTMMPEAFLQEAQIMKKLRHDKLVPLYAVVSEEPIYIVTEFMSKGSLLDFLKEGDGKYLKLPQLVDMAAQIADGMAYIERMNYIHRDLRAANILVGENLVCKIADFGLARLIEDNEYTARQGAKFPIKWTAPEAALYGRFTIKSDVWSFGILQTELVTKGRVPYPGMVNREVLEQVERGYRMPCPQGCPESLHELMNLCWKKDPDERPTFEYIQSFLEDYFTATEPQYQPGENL
compound,measurement,setting,value
C=CC(=O)Nc1cc(-n2c(=O)ccc3cnc4ccc(-c5ccc(NS(C)(=O)=O)cc5)cc4c32)ccc1C,Activity,[1],74%
same,Activity,[2],94%
same,Activity,[3],61%
same,Activity,[4],88%
same,Activity,[5],83%
same,Activity,[6],83%
same,Activity,[7],92%
same,Activity,[8],72%
same,Activity,[9],80%
same,Activity,[10],79%
same,Activity,[11],74%
same,Activity,[12],70.3%
same,inhibition,[13],inactive
same,inhibition,[14],Active
